# Source: publication PMC4026327 (Nature Communications, 2014)
# Experiments:
# Conditions in all cases: read-out: Melibiose displacement of D ^ 2 G (IC 50); 10 μM D2G, 20 mM NaCl, 100 mM KPi pH 7.5
# MelBSt (WT) [1] = molecular target: MelBSt (WT) (Salmonella enterica, UniProt P30878, L5M/R295C)
# MelBSt (WT) [2] = molecular target: MelBSt (WT) (Salmonella enterica, UniProt P30878, L5M/R141C)
# MelBSt (WT) [3] = molecular target: MelBSt (WT) (Salmonella enterica, UniProt P30878, L5M)
# MelBSt (WT) [4] = molecular target: MelBSt (WT) (Salmonella enterica, UniProt P30878, L5M/R363C)
structure (smiles),measurement,setting,value
OC[C@H]1O[C@H](OC[C@H]2OC(O)[C@H](O)[C@@H](O)[C@@H]2O)[C@H](O)[C@@H](O)[C@H]1O (stereo partly shown) [melibiose],IC50,MelBSt (WT) [1],4.04 ± 0.42 mM
same,IC50,MelBSt (WT) [2],5.93 ± 1.61 mM
same,IC50,MelBSt (WT) [3],2.65 ± 0.8 mM
same,IC50,MelBSt (WT) [4],2.83 ± 0.57 mM
